# In patent publication US9309235B2, “SGC stimulators” (IRONWOOD PHARMACEUTICALS, INC., priority 2012, dated 2016):
# How the values were obtained:
# [1] = tested on: Guinea pig tracheal smooth muscle; experiment: Electrical field stimulated guinea pig tracheal smooth muscle contraction (ex vivo); conditions: pooled from three experiments; 95% CI 0.78-0.94; read-out: IC50, inhibition of EFS-induced tracheal smooth muscle contraction
# Source text: Animals: Guinea pig, Dunkin Hartley, male, Full barrier-bred and certified free of specific micro-organisms on receipt 525-609 g on the experimental day, Harlan UK Ltd. Guinea pigs were housed in a group of 4 in solid-bottomed cages with Gold Flake bedding in a controlled environment (airflow, temperature and humidity). Food (FD1, Special Diet Services) and water were provided ad libitum.
# On each experimental day, a guinea pig was killed by exposure to a rising concentration of CO2 and the trachea removed. The trachea was cleaned of extraneous tissue and cut open longitudinally in a line opposite the muscle, opened out and cut into strips 2-3 cartilage rings wide. […] Tissues were washed with Kreb's buffer and stimulated using the previously determined sub-maximal voltage for 1 hour to establish a stable baseline contraction prior to assessment of compound activity. *“Novel and Versatile Superfusion System. […]
# A cumulative dose response curve (DRC) to each test substance was then performed and changes in smooth muscle contraction measured. The effect of each test substance in each experiment was expressed as a percentage inhibition of the baseline contraction, normalized to the relevant vehicle controls. […] The data from all three experiments was pooled, the DRC plotted, and the test substance potency and efficacy determined.
# [2] = biological target: T1, soluble guanylate cyclase (sGC) (Homo sapiens, UniProt Q02108+Q02153); experiment: sGC-HEK-cGMP assay (run with SNP incubation); assay type: cell-based; conditions: for EC50: full concentration-response curve, with SNP incubation, read-out: HEK assay EC50-unconstrained; for EC50 / Emax: top not fitted to 100%; for Emax: maximum activity from full concentration-response curve, relative to positive control BAY 41-2272, read-out: HEK assay Emax-unconstrained (Percent); for Emax at 1 µM: test compound 1 μM, read-out: HEK assay (Percent Emax at 1 μM); for Emax at 1 µM / Emax at 10 µM / Emax at 30 µM: 10 μM SNP, Emax = 100% is BAY 41-2272 at 10 μM in the presence of 100 μM SNP; for Emax at 10 µM: test compound 10 μM, read-out: HEK assay (Percent Emax at 10 μM); for Emax at 30 µM: test compound 30 μM, read-out: HEK assay (Percent Emax at 30 μM)
# T1 construct: endogenously expressing soluble guanylate cyclase (sGC); endogenous in cells; host or cells: HEK293
# T1 sequence (Q02153 1-619): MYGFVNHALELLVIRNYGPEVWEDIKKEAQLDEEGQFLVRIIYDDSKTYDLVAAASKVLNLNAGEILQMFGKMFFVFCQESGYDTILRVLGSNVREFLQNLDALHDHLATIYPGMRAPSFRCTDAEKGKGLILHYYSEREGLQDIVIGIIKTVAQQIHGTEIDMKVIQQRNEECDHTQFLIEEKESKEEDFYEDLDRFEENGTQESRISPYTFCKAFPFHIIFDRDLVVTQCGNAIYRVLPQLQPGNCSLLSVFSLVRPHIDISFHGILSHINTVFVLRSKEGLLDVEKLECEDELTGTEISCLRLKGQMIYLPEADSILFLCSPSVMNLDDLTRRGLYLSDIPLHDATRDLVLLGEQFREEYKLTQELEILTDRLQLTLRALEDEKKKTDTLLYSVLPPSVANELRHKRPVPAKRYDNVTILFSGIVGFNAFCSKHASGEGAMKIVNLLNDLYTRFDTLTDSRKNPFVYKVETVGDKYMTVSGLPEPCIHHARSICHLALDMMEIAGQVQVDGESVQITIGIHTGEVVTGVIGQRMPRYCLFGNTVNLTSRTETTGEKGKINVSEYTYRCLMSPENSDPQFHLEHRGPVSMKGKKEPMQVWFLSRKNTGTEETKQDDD
# T1 sequence (Q02108 1-690): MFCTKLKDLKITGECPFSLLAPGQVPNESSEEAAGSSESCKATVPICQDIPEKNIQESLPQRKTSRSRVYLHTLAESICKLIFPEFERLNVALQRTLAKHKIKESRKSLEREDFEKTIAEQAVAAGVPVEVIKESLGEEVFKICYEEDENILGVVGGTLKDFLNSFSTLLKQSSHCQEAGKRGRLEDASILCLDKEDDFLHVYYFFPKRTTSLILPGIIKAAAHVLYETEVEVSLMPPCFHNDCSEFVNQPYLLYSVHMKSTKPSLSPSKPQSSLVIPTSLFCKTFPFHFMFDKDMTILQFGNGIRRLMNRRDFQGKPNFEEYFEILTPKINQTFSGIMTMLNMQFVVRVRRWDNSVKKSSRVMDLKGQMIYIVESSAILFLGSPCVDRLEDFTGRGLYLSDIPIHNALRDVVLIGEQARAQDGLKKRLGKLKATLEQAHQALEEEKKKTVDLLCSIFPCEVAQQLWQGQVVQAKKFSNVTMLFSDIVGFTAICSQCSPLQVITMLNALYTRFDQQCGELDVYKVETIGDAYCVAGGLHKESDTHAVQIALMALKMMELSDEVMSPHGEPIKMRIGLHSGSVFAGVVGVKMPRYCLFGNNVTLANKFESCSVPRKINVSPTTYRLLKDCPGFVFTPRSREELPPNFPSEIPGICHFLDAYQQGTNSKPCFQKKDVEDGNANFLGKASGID
# Experimental: (Assay Run with SNP Incubation)
# Human embryonic kidney cells (HEK293), endogenously expressing soluble guanylate cyclase (sGC), were used to evaluate the activity of test compounds. Compounds stimulating the sGC receptor should cause an increase in the intracellular concentration of cGMP. HEK 293 cells were seeded in Dulbecco's Modification of Eagle's Medium supplemented with fetal bovine serum (10% final) and L-glutamine (2 mM final) in a 200 μL volume at a density of 1×10^5 cells/well in a poly-D-lysine coated 96 well flat bottom plate and grown overnight at 37° C. Medium was aspirated and cells were washed with 1× Hank's Buffered Saline Salt Solution (200 μL). Cells were then incubated for 15 minutes at 37° C. with 200 μL of a 0.5 mM 3-isobutyl-1-methylxanthine (IBMX) solution. Test article and sodium nitroprusside solutions (x μM concentration for test article solution and 10 μM concentration for SNP solution; wherein x is one of the following concentrations);
# were then added to the assay mixture (2 μL each) and the resulting mixture incubated at 37° C. for 10 minutes. After the 10 minute incubation, the assay mixture was aspirated and 0.1M HCl (200 μL) was added to the cells. The plate was incubated at 4° C. for 30 minutes in the 0.1M HCl to stop the reaction and lyse the cells. The plates were then centrifuged at 1,200 g for 5 minutes at room temperature. Supernatants were collected and transferred to a new flat bottom 96 well plate for analysis by HPLC-MS. Vehicle controls were carried out using DMSO (1%) solutions. A known sGC stimulator, BAY 41-2272, was used as the positive control. Samples were diluted with an equal volume of 1 M Ammonium Acetate (pH 7) to neutralize samples for better chromatography. A 2× cGMP standard solution was prepared in 0.1 M HCl and then diluted with an equal volume of 1 M Ammonium Acetate, with the following final concentrations in nM: 1024, 512, 256, 128, 64, 32, 16, 8, 4, 2, 1. cGMP concentrations in the test plates were determined from each sample using the LC/MS conditions shown in Table 2 below and the calculated cGMP standard curve. EC50 values were calculated from concentration-response curves generated with GraphPad Prism Software.
# The biological activities of some of the compounds of Formula I determined with the sGC—HEK assay with SNP incubation are summarized in Tables 3A and 3B.
# [3] = tested on: lambs with acute pulmonary hypertension; conditions: cited from earlier work; for effect on mean arterial pressure / pulmonary vasodilation / transpulmonary cGMP release / systemic arterial oxygenation: inhaled microparticles, awake lambs; for effect on mean arterial pressure / pulmonary vasodilation / transpulmonary cGMP release: U-46619 infusion
# [4] = biological target: T2, Human soluble guanylate cyclase enzyme (hsGC) (Homo sapiens, UniProt Q02108+Q02153); experiment: Purified human sGC enzyme synergy assay in the presence of sodium nitroprusside (SNP); assay type: biochemical; conditions: 30 μM compound in the presence of 1 μM SNP; fold increase over DMSO controls
# T2 construct: purchased Enzo Inc. ALX-201-177
# T2 sequence (Q02153 1-619): T1 sequence (Q02153 1-619)
# T2 sequence (Q02108 1-690): T1 sequence (Q02108 1-690)
# Experimental: Human soluble guanylate cyclase enzyme (hsGC) obtained from Enzo Inc. (P/N: ALX-201-177) was used to evaluate the activity of test compounds. The assay reactions contained 0.1 M Tris (pH 8.0), 0.5 mg/mL BSA (pH 8.0), 2 mM DTT, 2 mM MgCl2, 300 μM GTP, 1 mM 3-isobutyl-1-methylxanthine (IBMX) and 5 ng human soluble guanylate cyclase enzyme. Test compounds in DMSO were then added (2 μL, 10 or 30 μM final concentration) and incubated (water, 200 μL, 96-well plate format) at 37° C. for 30 minutes. The controls were carried out using 2 μL DMSO. After the 30 minute incubation, the reaction was stopped with the addition of 200 μL of cold methanol. The plate was then centrifuged at 3,200 rpm for 10 minutes at room temperature. Supernatants (200 μL) were collected and transferred to a new 96 well plate for analysis by HPLC LC/MS/MS.
# An 8 point cGMP (Sigma-Aldrich P/N: G6129) standard curve was prepared in assay buffer ranging from 0.156-20 μM. Samples for the cGMP standard curve were then diluted with an equal volume of methanol resulting in final cGMP concentrations of 0.078-10 μM.
# The cGMP standard curve was generated using GraphPad Prism Software.
# Calculations: Specific Activity was determined by the amount of cGMP formed (nmoles) per mg of sGC per min. Enzyme “fold-change” was calculated by dividing Specific Activity for test compounds by Specific Activity of DMSO controls. […]
EC50 [2] [nM],Emax [2] [%],Emax at 1 µM [2] [%],Emax at 10 µM [2] [%],Emax at 30 µM [2] [%],Compound,effect on mean arterial pressure [3],pulmonary vasodilation [3],transpulmonary cGMP release [3],other results
–,–,–,–,–,CC(C)[N+]1(C)[C@@H]2CC[C@H]1CC(OC(=O)C(CO)c1ccccc1)C2 (stereo partly shown) [Ipratropium bromide],–,–,–,IC50 [1]: 0.86 nM
10 to 100,40 to 60,40 to 60,40 to 60,60 to 80,Oc1nc(-c2cc(-c3ccon3)n(Cc3sccc3F)n2)ncc1F [Compound I-3],–,–,–,–
–,–,–,–,–,"O=c1onc2cnc3ccccc3n12 [ODQ, 1H-[1,2,4]oxadiazolo[4,3-a]quinoxalin-1-one]",–,–,–,pulmonary vasodilator effect of iNO ([3]; intravenous administration): markedly reduced
5000 to 10000,60 to 80,0 to 10,40 to 60,40 to 60,Oc1nc(-c2cc(-c3ccon3)n(Cc3cccs3)n2)ncc1F [Compound I-4],–,–,–,–
–,–,–,–,–,Nc1nc(-c2nn(Cc3ccccc3F)c3ncccc23)ncc1C1CC1 [BAY 41-2272],without significant effect,dose dependent pulmonary vasodilation,increased transpulmonary cGMP release,–
500 to 1000,40 to 60,20 to 40,40 to 60,40 to 60,Oc1nc(-c2cc(-c3ccon3)n(Cc3ccsc3)n2)ncc1F [Compound I-2],–,–,–,Enzyme Activity (increase at 30 μM with SNP) [4]: D (D = 10 or <20 fold increase)
–,–,–,–,–,Nc1nc(-c2nn(Cc3ccccc3F)c3ncccc23)nc(N)c1N1CCOCC1 [BAY 41-8543],without significant effect,dose dependent pulmonary vasodilation,increased transpulmonary cGMP release,magnitude and duration of pulmonary vasodilation induced by iNO ([3]; after inhaling microparticles): augmented; systemic arterial oxygenation [3]: increased systemic arterial oxygenation
–,–,–,–,–,O=C(O)CCCCN(CCc1ccccc1OCc1ccc(CCc2ccccc2)cc1)Cc1ccc(C(=O)O)cc1 [BAY 58-2667],without significant effect,dose dependent pulmonary vasodilation,increased transpulmonary cGMP release,pulmonary vasodilation and transpulmonary cGMP release after treatment with ODQ ([3]; inhaled microparticles after intravenous ODQ): greatly enhanced; systemic arterial oxygenation [3]: increased systemic arterial oxygenation
1000 to 5000,60 to 80,20 to 40,40 to 60,60 to 80,Nc1ccnc(-c2cc(-c3ccon3)n(Cc3ccsc3)n2)n1 [Compound I-1],–,–,–,Enzyme Activity (increase at 30 μM with SNP) [4]: D (D = 10 or <20 fold increase)
